Measured values: patent US8778303B2, “99mTc-labeled 19 amino acid containing peptide for use as phosphatidylethanolamine binding molecular probe and radiopharmaceutical” (The Medical College of Wisconsin, Inc., priority 2008, dated 2014)
“Also recorded” adds a separate entry of the source.

Columns and labels:
[1] = Stability of purified radiotracer in aqueous solution; assay type: physicochemical; conditions: once purified
Description: HPLC method 2. Jupiter C18 column (90 Å pore size, 250×4.6 mm) was used with a buffered mobile phase system consisting of phosphate buffer (10 mM sodium phosphate, pH 6.7) and acetonitrile at a flow rate of 1.0 ml/min at room temperature. A baseline of 5 min at 90% buffer A (phosphate buffer, pH6.7) and 10% buffer B (acetonitrile) was followed by a linear gradient to 10% buffer A and 90% buffer B in 30 min. The level of radioactivity in the HPLC elute was monitored by gamma counting at an energy window of 140±15 keV.
HYNIC-Duramycin was labeled with ^99mTc using the tricine-phosphine co-ligand system. Specifically, 15 μg of HYNIC-Duramycin was mixed with 40 mg of tricine, 1 mg of TPPTS and 20 μg SnCl2 in 0.8 ml at pH 5.3. The labeling was initiated with the addition of about 1 mCi of ^99mTc. The incubation was allowed to proceed for 40 min at room temperature. The final radiopharmaceutical, ^99mTc-HYNIC-Duramycin, was analyzed and purified using HPLC method 2. After purification, acetonitrile was removed by evaporation under nitrogen, and ^99mTc-HYNIC-Duramycin was reconstituted in saline for usage. ^99mTc-HYNIC-Duramycin^1 was synthesized in the same fashion. For stability tests, cysteine challenge was carried out at a cysteine-to-^99mTc-Duramycin ratio of 100 to 1, in 0.01 mM phosphate buffer (pH 6.8) for 2 hr at room temperature. The sample was analyzed with radioHPLC (method 2).

[2] = tested on: apoptotic Jurkat lymphocytes; assay: In vitro binding tests, apoptotic vs viable cells; conditions: for binding to apoptotic cells: apoptotic Jurkat lymphocytes
Description: In vitro binding tests. The PtdE-binding activity of ^99mTc-HYNIC-Duramycin was examined using binding assays in vitro. A good source of exposed PtdE was apoptotic Jurkat lymphocytes incubated with 5 μM final concentration of camptothecin at 37° C. in a humidified atmosphere with 5% CO2. Untreated control or treated cells were harvested by centrifugation at 800 g for 5 min and re-suspended at 2×10^6 per ml. Radiolabeled Duramycin or Duramycin^1 (inactivated Duramycin) was added to each ml of cells at a final concentration of 100 nM, and the binding was allowed to proceed for 5 min at room temperature. The mixture was then loaded onto a layer of Histopaque. After centrifugation at 800 g for 5 min, cell pellet was collected at the bottom of the tube below the Histopaque layer, whereas the media that contained the non-bound radioactivity will remain above Histopaque. The aqueous supernatant was removed by gentle aspiration. The tip of the tube that contains the pellet was cut off using a hot scalpel. Bound radioactivity was determined by direct gamma counting at an energy window of 140±15 keV.

[3] = Competition assay with phospholipid liposomes on apoptotic cells; assay type: binding; conditions: for binding to apoptotic cells in the presence of PtdE-containing liposomes: increasing concentration of PtdC/PtdE liposomes
Description: Preparation of liposomes. Liposomes with the following chemical compositions were made: PtdC (100%), PtdC/PtdE (50/50, w/w), PtdC/PtdS (50/50, w/w), PtdC/PtdG (50/50, w/w). Solid phospholipids were weighed to contain 2 mg for each type of lipids in separate glass test tubes (10×140 mm). One ml of chloroform was used to completely dissolve the phospholipid in each tube. The chloroform was evaporated under a stream of nitrogen where the dried phospholipids formed a thin film of residue on the test tube wall. The samples were thoroughly dried under vacuum overnight. The next morning each sample was re-suspended in 2 ml of HEPES buffer (15 mM HEPES, 120 mM NaCl, pH 7.4) at 45° C. Each suspension was sonicated for 2-5 min at 15 sec each cycle until the mixture turned into an opaque appearance, which indicated the formation of multi-laminar liposomes. The samples were kept on ice until use.
Competition assay. The retention of the binding activity was determined using a competition assay in the presence of PtdE-containing liposomes. PtdC/PtdE liposomes was prepared as described herein. Binding assay was carried out in triplicate in the presence of increasing amount of PtdC/PtdE liposomes, from 1 nM to 10 μM final concentration in 4-fold increments. The radioactivity bound to the cell pellet was determined by gamma counting as described in the precious paragraph. The assay was repeated using liposomes containing other species of closely related phospholipids, including PtdC, PtdG, and PtdS.

acute cardiac cell death [4] = assay: In vivo imaging of acute cardiac cell death, rat model of ischemia and reperfusion
area-at-risk = assay: Spatial and temporal uptake in the area-at-risk after myocardial ischemia and reperfusion; assay type: in vivo, rat
AMI = assay: Window of detection for AMI, planar imaging and autoradiography; assay type: in vivo, rat
acute cardiac cell death [5] = assay: Imaging of cardiac cell death after coronary ischemia with or without reperfusion (Example 2); assay type: in vivo, rat
Description: Cardiology applications include imaging cardiac cell death in heart diseases, such as acute myocardial infarction, myocarditis, myocardial ischemia, and heart transplant rejection. In an experimental example using a rat model, 99mTc-Duramycin was injected into a control rat (FIG. 10A) and a rat in which coronary ischemia was induced, followed by reperfusion (FIG. 10B). Both rats were subsequently imaged. […] A similar experiment was performed using a rat model where induced coronary ischemia was not followed by reperfusion.

[6] = tested on: heart transplant rejection; assay: Imaging in rat model of heart transplant rejection; assay type: in vivo; conditions: days four and six post transplantation
Description: In another experimental example, using a rat model of heart transplant rejection, rats were given heart allograft transplants, and other rats were given heart isograft transplants. Four and six days after heart tissue transplantation, the rats were injected with 99mTc-Duramycin and subsequently imaged.

[7] = tested on: radiation-induced cell death; assay: Imaging of radiation-induced cell death after whole-body irradiation; assay type: in vivo, rat; conditions: rats, 15 Gy whole-body ionizing irradiation
Description: In an experimental example, 99mTc-Duramycin imaging was used to detect the distribution of radiation-prone tissues after exposure to high-dose ionizing irradiation. […] Control rats were not exposed to ionizing radiation. […] The most radiation-susceptible tissues include the thymus (arrow) and bone marrows (arrow heads and bottom insets).

rat serum albumin = rat serum albumin (Rattus norvegicus, UniProt P02770); conditions: RadioHPLC
Sequence of rat serum albumin (P02770 25-608): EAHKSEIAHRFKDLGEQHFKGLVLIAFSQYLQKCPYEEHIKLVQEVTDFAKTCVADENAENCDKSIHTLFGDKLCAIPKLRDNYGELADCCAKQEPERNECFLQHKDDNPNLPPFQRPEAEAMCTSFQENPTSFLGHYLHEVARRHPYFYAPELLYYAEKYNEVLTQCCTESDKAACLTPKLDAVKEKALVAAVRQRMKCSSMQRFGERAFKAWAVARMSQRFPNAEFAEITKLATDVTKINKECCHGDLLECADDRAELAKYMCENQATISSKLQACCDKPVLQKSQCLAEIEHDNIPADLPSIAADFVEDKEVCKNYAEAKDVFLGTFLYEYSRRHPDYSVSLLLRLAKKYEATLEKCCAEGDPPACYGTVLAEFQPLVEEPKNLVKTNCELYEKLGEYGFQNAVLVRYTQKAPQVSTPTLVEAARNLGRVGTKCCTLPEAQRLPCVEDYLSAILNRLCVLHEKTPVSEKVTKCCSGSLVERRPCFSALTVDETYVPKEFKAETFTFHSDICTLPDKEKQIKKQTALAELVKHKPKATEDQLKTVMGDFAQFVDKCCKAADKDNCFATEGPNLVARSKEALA

[8] = listed as 99mTc-HYNIC-Duramycin^1
[9] = dissected heart tissues, 60 min after injection

SMILES: CC(C)=NNc1ccc(C(=O)NCCCC[C@@H]2NC(=O)[C@@H](N)CS[C@@H](C)[C@H]3NC(=O)[C@H](CC(N)=O)NC(=O)CNC(=O)[C@H]([C@@H](O)C(=O)O)NC(=O)[C@@H]4CSC[C@@H](NC(=O)[C@H](CCC(N)=O)NC2=O)C(=O)N[C@H]2CS[C@@H](C)[C@@H](NC(=O)[C@H](Cc5ccccc5)NC(=O)[C@@H]5CCCN5C(=O)CNC(=O)[C@H](Cc5ccccc5)NC(=O)[C@H](CNCCCC[C@@H](C(=O)O)NC3=O)NC2=O)C(=O)N[C@@H](Cc2ccccc2)C(=O)N[C@@H](C(C)C)C(=O)N4)cn1 [^99mTc-HYNIC-Duramycin, metal not drawn]
- time with no significant level of detached 99mTc detected [1]: at least 24 hrs
- binding to apoptotic cells [2]: dramatically enhanced
- binding to apoptotic cells [2, 8]: only at background levels
- radioactivity uptake in viable cells ([2]; viable Jurkat lymphocytes as control): remained near background
- binding to apoptotic cells in the presence of liposomes of other phospholipids ([3]; PtdC, PtdG or PtdS liposomes): unable to competitively reduce
- binding to apoptotic cells in the presence of PtdE-containing liposomes [3]: competitively abolished; also recorded: exclusively and competitively diminished
- binding to apoptotic cells in the presence of PtdE-containing liposomes [3, 8]: not competitively diminished
- average radioactivity at the infarct site (acute cardiac cell death [4]; at 1 hr post-injection): above 4.0 % ID/g
- infarct-to-lung ratio (acute cardiac cell death [4]; at 2 hr after injection (n=3)): 4.8±0.4
- infarct-to-muscle ratio (acute cardiac cell death [4]; at 2 hr after injection (n=3)): 12.2±1.3
- time after injection at which focal uptake was seen at the infarct (acute cardiac cell death [4]; dynamic images, as early as): 10 min
- average radioactivity at the infarct site (acute cardiac cell death [4]; rat, in vivo): less than 1.0 % ID/g
- retention / washout of radioactivity in the infarct (acute cardiac cell death [4]; rat, in vivo): accompanied with a washout
- time uptake in infarct tissues remained persistent without significant washout (area-at-risk; after injection): at least 3 hours
- time to approach plateau of uptake (area-at-risk; area-at-risk, after injection): ≤ 10 min
- tracer uptake in the ischemic-non-infarct myocardium (area-at-risk; at 180 min): 2.1±0.3 % ID
- average infarct-to-normal ratio (area-at-risk; [9]): 31.9
- average ischemic-to-normal ratio (area-at-risk; [9]): 11.1
- tracer uptake in the ischemic-non-infarct myocardium (area-at-risk; minimum at 60 min): 1.6±0.6 % ID/g
- tracer uptake in the ischemic-non-infarct myocardium (area-at-risk; peak at around 10 min post-injection): 2.7±0.6 % ID/g
- radioactivity uptake in the infarcted myocardium (area-at-risk; plateau by 10 min after injection): 4.3±0.7 % ID/g
- level (plateau) of uptake in the area-at-risk (area-at-risk; rat myocardial ischemia and reperfusion): ~4 % ID/g
- presence of radioactivity in the infarcted tissue reduced (inactivated tracer) (area-at-risk; rat, in vivo): ~60%
- time of maximum radioactivity in the infarcted tissue (area-at-risk; rat, in vivo): about 30 min
- radioactivity uptake in the normal myocardium (area-at-risk; reflecting residual blood pool signal): low
- radioactivity uptake in the infarcted myocardium (area-at-risk; within 3 min after injection): 1.8±0.4 % ID/g
- decline of signal-to-background ratio in autoradiographs (AMI; at 24 hr compared with 2 hr post infarction): 32%
- decline of signal-to-background ratio in autoradiographs (AMI; at 48 hr compared with 2 hr post infarction): 43%
- imaging of acute cardiac cell death after reperfused coronary ischemia (acute cardiac cell death [5]; infarct model rat, 120 minutes after injection): can be seen
- imaging of cardiac cell death following nonreperfused coronary ischemia (acute cardiac cell death [5]; rat model): successfully imaged
- uptake in heart allografts in contrast to isografts [6]: Markedly elevated
- detection of radiation-susceptible tissues [7]: Tissues susceptible to radiation-induced cell death were detected
- complex formation between the tracer and albumin (rat serum albumin): did not result in any complex formation
